Measurements as given in patent US20250197368A1 (priority 2020, published 2025).

Tests used:
[1] = target: human α2β3γ2 GABAARs (benzodiazepine site) (Homo sapiens (Human), UniProt P18507+P47869); assay: In vitro radioligand binding assay ([3H]Ro15-1788 displacement), α2-GABAAR Ki
In short: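 Ki derived via Cheng-Prusoff from IC50 for displacement of 4 nM [3H]Ro15-1788 (Kd from saturation binding), with 1-3 μM TP003 defining nonspecific binding. Incubation lasted 1 h at 4° C on membranes of induced L(tk−) cells stably transfected with the human subunits; detection by filtration and scintillation counting.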

human α2β3γ2 GABAARs = assay: In vitro electrophysiological recording assay (automated patch-clamp), α2-GABAAR relative efficacy; format: cell-based; settings: % efficacy normalised to diazepam; GABA EC10-20; concentration generally >= 100 times Ki
In short: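 Relative efficacy is % enhancement of the leak-subtracted GABA EC10-20 peak current, divided by the separately measured diazepam value; compound generally tested at ≥100× Ki after ≥1 min pre-application. Recordings at room temperature, human receptors stably expressed in L(tk^−) (QPatch, −65 mV) or HEK293 (SyncroPatch, −80 mV) cells.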

human α2β3γ2 GABAARs (benzodiazepine site), sequence (P47869 29-451): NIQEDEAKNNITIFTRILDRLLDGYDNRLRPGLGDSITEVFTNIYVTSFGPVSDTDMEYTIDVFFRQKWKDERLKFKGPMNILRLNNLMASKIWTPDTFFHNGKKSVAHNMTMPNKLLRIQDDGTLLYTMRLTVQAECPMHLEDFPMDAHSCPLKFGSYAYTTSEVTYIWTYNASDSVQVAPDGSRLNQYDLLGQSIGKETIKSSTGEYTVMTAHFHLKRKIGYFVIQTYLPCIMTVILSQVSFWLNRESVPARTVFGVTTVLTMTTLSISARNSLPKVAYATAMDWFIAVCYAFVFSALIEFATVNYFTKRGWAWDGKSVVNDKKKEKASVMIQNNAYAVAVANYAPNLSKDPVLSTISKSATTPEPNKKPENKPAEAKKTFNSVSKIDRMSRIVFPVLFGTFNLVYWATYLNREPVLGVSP
human α2β3γ2 GABAARs (benzodiazepine site), sequence (P28472 26-473 partner): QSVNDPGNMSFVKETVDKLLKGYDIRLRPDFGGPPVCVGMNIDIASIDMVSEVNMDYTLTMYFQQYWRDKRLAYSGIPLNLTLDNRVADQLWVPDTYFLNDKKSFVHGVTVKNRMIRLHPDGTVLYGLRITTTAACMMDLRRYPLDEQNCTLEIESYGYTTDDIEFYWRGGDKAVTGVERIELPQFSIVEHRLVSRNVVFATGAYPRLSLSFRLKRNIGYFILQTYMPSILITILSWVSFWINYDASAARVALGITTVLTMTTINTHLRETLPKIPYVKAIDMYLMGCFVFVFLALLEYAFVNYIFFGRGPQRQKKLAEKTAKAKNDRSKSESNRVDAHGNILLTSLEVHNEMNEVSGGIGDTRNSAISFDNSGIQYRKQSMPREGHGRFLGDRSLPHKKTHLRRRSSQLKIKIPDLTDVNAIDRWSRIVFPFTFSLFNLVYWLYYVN
human α2β3γ2 GABAARs (benzodiazepine site), sequence (P18507 40-475): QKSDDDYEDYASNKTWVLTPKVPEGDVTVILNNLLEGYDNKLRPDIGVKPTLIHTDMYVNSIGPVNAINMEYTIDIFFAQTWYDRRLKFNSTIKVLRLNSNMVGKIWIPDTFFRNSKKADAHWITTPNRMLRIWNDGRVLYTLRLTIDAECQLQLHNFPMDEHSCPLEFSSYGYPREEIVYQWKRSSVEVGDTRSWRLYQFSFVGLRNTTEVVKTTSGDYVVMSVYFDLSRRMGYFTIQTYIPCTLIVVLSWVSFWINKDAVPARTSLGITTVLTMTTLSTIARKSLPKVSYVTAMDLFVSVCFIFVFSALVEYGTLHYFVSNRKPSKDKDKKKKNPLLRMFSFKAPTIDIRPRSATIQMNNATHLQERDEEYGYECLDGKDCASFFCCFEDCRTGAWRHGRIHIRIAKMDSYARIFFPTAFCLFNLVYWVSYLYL

CCCNC(=O)c1c(N)c2cccc(-c3cn(C)nc3C)c2n(CC)c1=O [Example 83, 4-Amino-8-(1,3-dimethylpyrazol-4-yl)-1-ethyl-2-oxo-N-propyl-quinoline-3-carboxamide]
Ki [1]: 15.7 nM
α2-GABAAR Relative Efficacy (vs. Diazepam) (human α2β3γ2 GABAARs): 0.40

CCCNC(=O)c1c(N)c2cccc(-c3cc(OCc4ccccn4)ccc3C)c2[nH]c1=O [Example 86, 4-Amino-8-[2-methyl-5-(2-pyridylmethoxy)phenyl]-2-oxo-N-propyl-1H-quinoline-3-carboxamide]
Ki [1]: 1.71 nM
α2-GABAAR Relative Efficacy (vs. Diazepam) (human α2β3γ2 GABAARs): 0.28

CCCNC(=O)c1c(N)c2cccc(-c3cccc(OCc4ccccn4)c3)c2[nH]c1=O [Example 87, 4-Amino-2-oxo-N-propyl-8-[3-(2-pyridylmethoxy)phenyl]-1H-quinoline-3-carboxamide]
Ki [1]: 1.78 nM
α2-GABAAR Relative Efficacy (vs. Diazepam) (human α2β3γ2 GABAARs): 0.24

CCCNC(=O)c1c(N)c2cccc(-c3cc(OCc4cccc(OC)n4)ccc3F)c2[nH]c1=O [Example 89, 4-Amino-8-[2-fluoro-5-[(6-methoxy-2-pyridyl)methoxy]phenyl]-2-oxo-N-propyl-1H-quinoline-3-carboxamide]
Ki [1]: 1.55 nM
α2-GABAAR Relative Efficacy (vs. Diazepam) (human α2β3γ2 GABAARs): 0.3

CCCNC(=O)c1c(N)c2cccc(-c3cc(OCc4cccc(C(F)(F)F)n4)ccc3F)c2[nH]c1=O [Example 90, 4-Amino-8-[2-fluoro-5-[[6-(trifluoromethyl)-2-pyridyl]methoxy]phenyl]-2-oxo-N-propyl-1H-quinoline-3-carboxamide]
Ki [1]: 3 nM
α2-GABAAR Relative Efficacy (vs. Diazepam) (human α2β3γ2 GABAARs): 0.18

CCCNC(=O)c1c(N)c2cccc(-c3cc(OCc4ccc(F)cn4)ccc3C)c2[nH]c1=O [Example 93]
Ki [1]: 1.63 nM
α2-GABAAR Relative Efficacy (vs. Diazepam) (human α2β3γ2 GABAARs): 0.34

CCCNC(=O)c1c(N)c2cccc(-c3cccc(OCc4ccc(F)cn4)c3)c2[nH]c1=O [Example 94, 4-Amino-8-[3-[(5-fluoro-2-pyridyl)methoxy]phenyl]-2-oxo-N-propyl-1H-quinoline-3-carboxamide]
Ki [1]: 2.42 nM
α2-GABAAR Relative Efficacy (vs. Diazepam) (human α2β3γ2 GABAARs): 0.28

CCCNC(=O)c1c(N)c2cccc(-c3cc(OCc4ccc(C)cn4)ccc3F)c2[nH]c1=O [Example 95, 4-Amino-8-[2-fluoro-5-[(5-methyl-2-pyridyl)methoxy]phenyl]-2-oxo-N-propyl-1H-quinoline-3-carboxamide]
Ki [1]: 0.44 nM
α2-GABAAR Relative Efficacy (vs. Diazepam) (human α2β3γ2 GABAARs): 0.22

CCCNC(=O)c1c(N)c2cccc(-c3cc(OCc4ccc(OC)cn4)ccc3F)c2[nH]c1=O [Example 96, 4-Amino-8-[2-fluoro-5-[(5-methoxy-2-pyridyl)methoxy]phenyl]-2-oxo-N-propyl-1H-quinoline-3-carboxamide]
Ki [1]: 0.92 nM
α2-GABAAR Relative Efficacy (vs. Diazepam) (human α2β3γ2 GABAARs): 0.24

CCCNC(=O)c1c(N)c2cccc(-c3cc(OCc4ccc(Cl)cn4)ccc3F)c2[nH]c1=O [Example 97, 4-Amino-8-[5-[(5-chloro-2-pyridyl)methoxy]-2-fluoro-phenyl]-2-oxo-N-propyl-1H-quinoline-3-carboxamide]
Ki [1]: 0.72 nM
α2-GABAAR Relative Efficacy (vs. Diazepam) (human α2β3γ2 GABAARs): 0.25

CCCNC(=O)c1c(N)c2cccc(-c3cc(OCc4ccc(C(F)(F)F)cn4)ccc3F)c2[nH]c1=O [Example 98, 4-Amino-8-[2-fluoro-5-[[5-(trifluoromethyl)-2-pyridyl]methoxy]phenyl]-2-oxo-N-propyl-1H-quinoline-3-carboxamide]
Ki [1]: 0.61 nM
α2-GABAAR Relative Efficacy (vs. Diazepam) (human α2β3γ2 GABAARs): 0.29

CCCNC(=O)c1c(N)c2cccc(-c3cc(OCc4ccc(C#N)cn4)ccc3F)c2[nH]c1=O [Example 99, 4-Amino-8-[5-[(5-cyano-2-pyridyl)methoxy]-2-fluoro-phenyl]-2-oxo-N-propyl-1H-quinoline-3-carboxamide]
Ki [1]: 0.24 nM
α2-GABAAR Relative Efficacy (vs. Diazepam) (human α2β3γ2 GABAARs): 0.28

CCCNC(=O)c1c(N)c2cccc(-c3cc(OCc4cc(OC)ccn4)ccc3F)c2[nH]c1=O [Example 100, 4-Amino-8-[2-fluoro-5-[(4-methoxy-2-pyridyl)methoxy]phenyl]-2-oxo-N-propyl-1H-quinoline-3-carboxamide]
Ki [1]: 0.07 nM
α2-GABAAR Relative Efficacy (vs. Diazepam) (human α2β3γ2 GABAARs): 0.18

CCCNC(=O)c1c(N)c2cccc(-c3cc(OCc4cc(C#N)ccn4)ccc3F)c2[nH]c1=O [Example 101, 4-Amino-8-[5-[(4-cyano-2-pyridyl)methoxy]-2-fluoro-phenyl]-2-oxo-N-propyl-1H-quinoline-3-carboxamide]
Ki [1]: 0.19 nM
α2-GABAAR Relative Efficacy (vs. Diazepam) (human α2β3γ2 GABAARs): 0.31

CCCNC(=O)c1c(N)c2cccc(-c3cc(OCc4cc(CO)ccn4)ccc3F)c2[nH]c1=O [Example 102, 4-Amino-8-(2-fluoro-5-((4-(hydroxymethyl)pyridin-2-yl)methoxy)phenyl)-2-oxo-N-propyl-1,2-dihydroquinoline-3-carboxamide]
Ki [1]: 0.7 nM
α2-GABAAR Relative Efficacy (vs. Diazepam) (human α2β3γ2 GABAARs): 0.33

CCCNC(=O)c1c(N)c2cccc(-c3cc(OCc4ncccc4C)ccc3F)c2[nH]c1=O [Example 103, 4-Amino-8-[2-fluoro-5-[(3-methyl-2-pyridyl)methoxy]phenyl]-2-oxo-N-propyl-1H-quinoline-3-carboxamide]
Ki [1]: 1.68 nM
α2-GABAAR Relative Efficacy (vs. Diazepam) (human α2β3γ2 GABAARs): 0.37

CCCNC(=O)c1c(N)c2cccc(-c3cc(COc4ccccn4)ncc3F)c2[nH]c1=O [Example 104, 4-Amino-8-(5-fluoro-2-((pyridin-2-yloxy)methyl)pyridin-4-yl)-2-oxo-N-propyl-1,2-dihydroquinoline-3-carboxamide]
Ki [1]: 2.08 nM
α2-GABAAR Relative Efficacy (vs. Diazepam) (human α2β3γ2 GABAARs): 0.27

CCCNC(=O)c1c(N)c2cccc(-c3cc(OCc4cccnn4)ccc3F)c2[nH]c1=O [Example 105, 4-Amino-8-[2-fluoro-5-(pyridazin-3-ylmethoxy)phenyl]-2-oxo-N-propyl-1H-quinoline-3-carboxamide]
Ki [1]: 0.21 nM
α2-GABAAR Relative Efficacy (vs. Diazepam) (human α2β3γ2 GABAARs): 0.19

CCCNC(=O)c1c(N)c2cccc(-c3cc(OCc4ccnnc4)ccc3F)c2[nH]c1=O [Example 106, 4-Amino-8-[2-fluoro-5-(pyridazin-4-ylmethoxy)phenyl]-2-oxo-N-propyl-1H-quinoline-3-carboxamide]
Ki [1]: 0.41 nM
α2-GABAAR Relative Efficacy (vs. Diazepam) (human α2β3γ2 GABAARs): 0.22

CCCNC(=O)c1c(N)c2cccc(-c3cc(OCc4cncnc4)ccc3F)c2[nH]c1=O [Example 107, 4-Amino-8-[2-fluoro-5-(pyrimidin-5-ylmethoxy)phenyl]-2-oxo-N-propyl-1H-quinoline-3-carboxamide]
Ki [1]: 0.2 nM
α2-GABAAR Relative Efficacy (vs. Diazepam) (human α2β3γ2 GABAARs): 0.17

CCCNC(=O)c1c(N)c2cccc(-c3cc(OCc4cccnc4)ccc3F)c2[nH]c1=O [Example 108, 4-Amino-8-[2-fluoro-5-(3-pyridylmethoxy)phenyl]-2-oxo-N-propyl-1H-quinoline-3-carboxamide]
Ki [1]: 0.39 nM
α2-GABAAR Relative Efficacy (vs. Diazepam) (human α2β3γ2 GABAARs): 0.32

CCCNC(=O)c1c(N)c2cccc(-c3cc(OCc4cccnc4C#N)ccc3F)c2[nH]c1=O [Example 109, 4-Amino-8-[5-[(2-cyano-3-pyridyl)methoxy]-2-fluoro-phenyl]-2-oxo-N-propyl-1H-quinoline-3-carboxamide]
Ki [1]: 0.17 nM
α2-GABAAR Relative Efficacy (vs. Diazepam) (human α2β3γ2 GABAARs): 0.21

CCCNC(=O)c1c(N)c2cccc(-c3cc(COc4ccc(C)nc4)ccc3F)c2[nH]c1=O [Example 112, 4-Amino-8-[2-fluoro-5-[(6-methyl-3-pyridyl)oxymethyl]phenyl]-2-oxo-N-propyl-1H-quinoline-3-carboxamide]
Ki [1]: 0.57 nM
α2-GABAAR Relative Efficacy (vs. Diazepam) (human α2β3γ2 GABAARs): 0.11

CCCNC(=O)c1c(N)c2cccc(-c3cc(OCc4ccncc4)ccc3F)c2[nH]c1=O [Example 113, 4-Amino-8-[2-fluoro-5-(4-pyridylmethoxy)phenyl]-2-oxo-N-propyl-1H-quinoline-3-carboxamide]
Ki [1]: 0.12 nM
α2-GABAAR Relative Efficacy (vs. Diazepam) (human α2β3γ2 GABAARs): 0.24

CCCNC(=O)c1c(N)c2cccc(-c3cc(OCc4ccc(F)cc4C#N)ccc3F)c2[nH]c1=O [Example 114, 4-Amino-8-[5-[(2-cyano-4-fluoro-phenyl)methoxy]-2-fluoro-phenyl]-2-oxo-N-propyl-1H-quinoline-3-carboxamide]
Ki [1]: 0.73 nM
α2-GABAAR Relative Efficacy (vs. Diazepam) (human α2β3γ2 GABAARs): 0.38

CCCNC(=O)c1c(N)c2cccc(-c3cc(OCc4ccc(C#N)cc4OC)ccc3F)c2[nH]c1=O [Example 115, 4-Amino-8-[5-[(4-cyano-2-methoxy-phenyl)methoxy]-2-fluoro-phenyl]-2-oxo-N-propyl-1H-quinoline-3-carboxamide]
Ki [1]: 2.01 nM
α2-GABAAR Relative Efficacy (vs. Diazepam) (human α2β3γ2 GABAARs): 0.34

CCCNC(=O)c1c(N)c2cccc(-c3cc(OCc4ccoc4)ccc3F)c2[nH]c1=O [Example 116, 4-Amino-8-(2-fluoro-5-(furan-3-ylmethoxy)phenyl)-2-oxo-N-propyl-1,2-dihydroquinoline-3-carboxamide]
Ki [1]: 1.17 nM
α2-GABAAR Relative Efficacy (vs. Diazepam) (human α2β3γ2 GABAARs): 0.42

CCCNC(=O)c1c(N)c2cccc(-c3cc(OCc4scnc4C)ccc3F)c2[nH]c1=O [Example 117, 4-Amino-8-[2-fluoro-5-[(4-methylthiazol-5-yl)methoxy]phenyl]-2-oxo-N-propyl-1H-quinoline-3-carboxamide]
Ki [1]: 1.6 nM
α2-GABAAR Relative Efficacy (vs. Diazepam) (human α2β3γ2 GABAARs): 0.23

CCCNC(=O)c1c(N)c2cccc(-c3cc(OCc4nc(C)cs4)ccc3F)c2[nH]c1=O [Example 118, 4-Amino-8-[2-fluoro-5-[(4-methylthiazol-2-yl)methoxy]phenyl]-2-oxo-N-propyl-1H-quinoline-3-carboxamide]
Ki [1]: 0.5 nM
α2-GABAAR Relative Efficacy (vs. Diazepam) (human α2β3γ2 GABAARs): 0.29

CCCNC(=O)c1c(N)c2cccc(-c3cc(OCc4cscn4)ccc3F)c2[nH]c1=O [Example 119, 4-Amino-8-(2-fluoro-5-(thiazol-4-ylmethoxy)phenyl)-2-oxo-N-propyl-1,2-dihydroquinoline-3-carboxamide]
Ki [1]: 0.31 nM
α2-GABAAR Relative Efficacy (vs. Diazepam) (human α2β3γ2 GABAARs): 0.38
